The values below come from patent US7786297B2, “Purified form of tanaproget” (Wyeth LLC, priority 2005, dated 2010).

The nature of the data set: storage stability of purified tanaproget Form I (polymorph conversion). The format is physicochemical. As to conditions: storage of purified tanaproget Form I alone or in combination with other agents/excipients.

As for `Cn1c(C#N)ccc1-c1ccc2c(c1)C(C)(C)OC(=S)N2` [purified tanaproget Form I, 5-(4,4-dimethyl-2-thioxo-1,4-dihydro-2H-3,1-benzoxazin-6-yl)-1-methyl-1H-pyrrole-2-carbonitrile], the “stability / conversion to another polymorph during storage” value was “stable and less likely to convert to another polymorph during storage”.
